Measurements: patent US20240173432A1, “Compositions and Methods for Treatment of Myotonic Dystrophy Type 1 with CRISPR/SluCas9” (Vertex Pharmaceuticals Incorporated, priority 2021, published 2024)

Tests used:
[1] = tested on: CUG foci in primary DM1 patient myoblasts; test: Single-cut screening: FISH staining of CUG RNA foci; assay type: cell-based, human; settings: single sgRNA, primary DM1 patient myoblasts; for % of CUG foci free nuclei (DNA-PKi): DNA-PKi treated
Summary of the method: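 CD56-purified primary DM1 patient myoblasts nucleofected with SluCas9:sgRNA RNP (30:90 pmol, single-cut), then DMSO or 3 μM DNA-PK inhibitor for 48 h. At 72 h post-nucleofection, cells fixed and stained for CUG foci with Cy3-PNA(CAG)5 probe (1 ng/μL, 80 °C), co-stained for MBNL1 and Hoechst, imaged by high-content confocal microscopy.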

[2] = tested on: CAG foci in primary DM1 patient myoblasts; test: Single-cut screening: CAG foci staining; assay type: cell-based, human; settings: single sgRNA; for % of CAG foci positive nuclei (DNA-PKi): DNA-PKi treated
Summary of the method: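 Primary DM1 patient myoblasts were PFA-fixed and hybridized with […] (1 ng/μL, 15 min at 80° C) in 30% formamide/2×SSC, followed by anti-MBNL1 immunostaining and Hoechst counterstain. CAG RNA foci were quantified by high-content confocal imaging after single-cut SuCas9 sgRNA editing.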

[3] = tested on: 3′ UTR of the human DMPK gene; test: Single-cut screening: indel editing efficiency by Sanger sequencing and ICE analysis in primary DM1 patient myoblasts; assay type: cell-based; settings: vehicle-treated samples; for Indel efficiency: single SluCas9 sgRNA RNP in primary DM1 patient myoblasts, Sanger sequencing and ICE analysis; for indel efficiency (Sanger sequencing and ICE analysis): single-cut, SluCas9 RNP, 72 hrs post nucleofection, wild-type allele
Description: Genomic DNA of DM1 myoblasts was isolated with the Kingfisher Flex purification system (Thermal Fisher) in 96-well format following the manufacturer's instruction. The DMPK 3′ UTR region was amplified using GoTaq Green Master Mix (Promega) and PCR primers flanking the 3′ UTR region. […] Amplification was conducted using the following cycling parameters: 1 cycle at 95° C. for 2 min; 40 cycles of 95° C. for 30 sec, 63° C. for 30 sec, and 72° C. for 90 sec; 1 cycle at 72° C. for 5 min. Only the wild type allele is amplified by the PCR reaction. The PCR products were analyzed on the TapeStation system with High Sensitivity D5000 ScreenTape (Agilent Technologies).
PCR products were purified and sequenced by Sanger sequencing. […] Indel values were estimated using the ICE analysis algorithm (Synthego) with the chromatogram files obtained from Sanger sequencing.
RNPs were assembled with recombinant SluCas9 protein and chemically modified sgRNAs at a ratio of 1:3 (protein:sgRNA). For SINGLE-cut screening, RNP complexes were assembled with 30 pmol of SluCas9 and 90 pmol of sgRNA in P5 Primary Cell Nucleofector Solution (Lonza). After incubation at room temperature for 20 minutes, 10 μL of RNP complex were mixed with two hundred thousand of primary myoblasts resuspended in 10 μL of P5 Nucleofector Solution. For DOUBLE-cut screening, RNP complexes were first assembled for individual sgRNAs with 20 pmol of SluCas9 protein and 60 pmol of sgRNAs in 5 μL of P5 Nucleofector Solution. After incubation at room temperature for 20 minutes, the two RNP complexes (one for upstream sgRNA and one for downstream sgRNA) were mixed at 1:1 ratio and then further mixed with two hundred thousand of primary myoblasts resuspended in 10 μL of P5 Nucleofector Solution.
The Nucleofector 96-well Shuttle System (Lonza) was used to deliver the SluCa9/sgRNA RNPs into primary DM1 patient myoblasts using the nucleofection program CM138. […] 72 hrs post nucleofection, two wells of DMSO-treated myoblasts and two wells of DNA-PKi-treated myoblasts from each nucleofection were harvested for genomic DNA extraction using the Kingfisher Flex purification system (Thermal Fisher), whereas one well of DMSO-treated myoblasts and one well of DNA-PKi-treated myoblasts were stained for RNA foci by FISH staining.
To assess the efficiency of individual SluCas9 sgRNAs for inducing indel editing and CTG repeat excision, single-cut screening was performed in which individual SluCas9 sgRNAs and recombinant SluCas9 protein were assembled into ribonucleoprotein (RNP) and delivered into primary DM1 patient myoblasts. […] Seventy-two (72) hrs post nucleofection, myoblasts were subjected to either genomic DNA isolation or RNA foci staining by fluorescence in situ hybridization (FISH).
Sanger sequencing and ICE analysis were then performed to quantify the frequency of indels induced by individual sgRNAs. It is of note that only the vehicle-treated samples were used for ICE analysis.
Editing efficiency was assessed by Sanger sequencing and ICE analysis. […] The * indicates the sgRNAs with R2<0.9 in the ICE analysis (in-house QC standard for reliable ICE analysis).

Substance | % of CUG foci free nuclei (DNA-PKi) [1] | % of CUG foci free nuclei (Vehicle) [1] | % of CAG foci positive nuclei (DNA-PKi) [2] | % of CAG foci positive nuclei (Vehicle) [2] | Indel efficiency [3] | indel efficiency (Sanger sequencing and ICE analysis) [3]
CAGCGCAAGTGAGGAGGGGGGC (guide RNA; chemistry not fully specified) [SluD46] | 34.71% | 8.24% | 1.16% | 1.69% | 46% | –
CAGGCTGAGGCCCTGACGTGGA (guide RNA; chemistry not fully specified) [SluD07] | 29.79% | 12.52% | 0.82% | 2.37% | 28% | –
CAGTGCATCCAAAACGTGGATT (guide RNA; chemistry not fully specified) [SluD75] | 22.6% | 11.9% | 1.9% | 1.56% | 17% | –
CAGTTCACAACCGCTCCGAGCG (guide RNA; chemistry not fully specified) [SluU23] | 29.8% | 11.23% | 1.53% | 1% | 5% | –
CCAAAACGTGGATTGGGGTTGT (listed as DNA, chemistry not fully specified) [SluD73] | 32.52% | 12.95% | 2.33% | 2.52% | 65% | high editing IN4DEL efficiency
CCACGCTCGGAGCGGTTGTGAA (guide RNA; chemistry not fully specified) [SluU24] | 50.23% | 20.62% | 1.56% | 1% | 28% | –
CCAGCCGGCTCCGCCCGCTTCG (listed as DNA, chemistry not fully specified) [SluD56] | 31.7% | 13.88% | 2.91% | 1.04% | 70% | high editing IN4DEL efficiency
CCAGGCTGAGGCCCTGACGTGG (listed as DNA, chemistry not fully specified) [SluD06] | 23.09% | 24.51% | 1.35% | 3.12% | 55% | high editing IN4DEL efficiency
CCAGTTCACAACCGCTCCGAGC (guide RNA; chemistry not fully specified) [SluU22] | 50.21% | 27.56% | 1.28% | 0.96% | 41% | –
CCATCCACGTCAGGGCCTCAGC (guide RNA; chemistry not fully specified) [SluD08] | 48.28% | 27.09% | 1.22% | 5% | 45% | –
CCCAACAACCCCAATCCACGTT (guide RNA; chemistry not fully specified) [SluD70] | 30.47% | 22.75% | 2.45% | 2.33% | 14% | –
CCCCCTAGCggccggggaggga (guide RNA; as printed in the source, key not given here) [SluU44] | 47% | 12.6% | 1.77% | 0.7% | 16% | –
CCCCGGGCACTCAGTCTTCCAA (guide RNA; chemistry not fully specified) [SluU12] | 50.23% | 16.44% | 1.38% | 1.29% | 20% | –
CCCCGTTGGAAGACTGAGTGCC (guide RNA; chemistry not fully specified) [SluU09] | 74.97% | 26.05% | 1.22% | 1.48% | 65% | –
CCCCTCCTCACTTGCGCTGCTC (guide RNA; chemistry not fully specified) [SluD47] | 28.63% | 8.95% | 1.11% | 1% | 18% | –
CCCGGGCACTCAGTCTTCCAAC (guide RNA; chemistry not fully specified) [SluU11] | 52.22% | 19.12% | 1.27% | 1.44% | 21% | –
CCCGTTGGAAGACTGAGTGCCC (listed as DNA, chemistry not fully specified) [SluU10] | 72.18% | 27.04% | 0.66% | 2% | 81% | high editing IN4DEL efficiency
CCCTAGAACTGTCTTCGACTCC (guide RNA; chemistry not fully specified) [SluU03] | 49.49% | 11.12% | 2.04% | 1.05% | 9% | –
CCGAGAGCAGCGCAAGTGAGGA (guide RNA; chemistry not fully specified) [SluD50] | 30.13% | 7.64% | 2.2% | 1.81% | 4% | –
CCGGGCCCGCCCCCTAGCggcc (guide RNA; as printed in the source, key not given here) [SluU37] | 30.58% | 8.09% | 2.28% | 0.72% | 15% | –
CCTCCGACTCGCTGACAGGCTA (guide RNA; chemistry not fully specified) [SluD67] | 25.54% | 10.06% | 1.8% | 0.69% | 39% | –
CCTGACGTGGATGGGCAAACTG (guide RNA; chemistry not fully specified) [SluD09] | 33.83% | 12.5% | 1.48% | 1.16% | 5% | –
